Source: paper PMC6337627 (Molecules, 2019)
Several values for one entry are separate records, joined by “and”; a condition that tells them apart may be missing. Equal entries are not always repeated. Starred links: 1 amine or outer side, 2 acyl side, 3 side chain; linkers in the order of their positions; H or OH if unused. Non-standard residues stand in square brackets, D forms with d. Residues, ends and D or L forms follow the SMILES beside them. ξ: configuration not given here. Suc = O=C(CCC(=O)[*:2])[*:1]; Nphe = O=C(O)CNCc1ccccc1; ξF = NC(Cc1ccccc1)C(=O)O; Ava = NCCCCC(=O)O; GABA = NCCCC(=O)O; βAla = NCCC(=O)O

Key:
[1] = biological target: acetylcholinesterase (AChE) (Electrophorus electricus, UniProt O42275); assay: biochemical; conditions: for IC50: AChE from Electrophorus electricus, substrate acetylthiocholine, 30 min pre-incubation, mean ± SEM of triplicate independent experiments; for Selectivity: AChE versus BuChE (values fit IC50 BuChE / IC50 AChE)
acetylcholinesterase (AChE), sequence (O42275 24-633): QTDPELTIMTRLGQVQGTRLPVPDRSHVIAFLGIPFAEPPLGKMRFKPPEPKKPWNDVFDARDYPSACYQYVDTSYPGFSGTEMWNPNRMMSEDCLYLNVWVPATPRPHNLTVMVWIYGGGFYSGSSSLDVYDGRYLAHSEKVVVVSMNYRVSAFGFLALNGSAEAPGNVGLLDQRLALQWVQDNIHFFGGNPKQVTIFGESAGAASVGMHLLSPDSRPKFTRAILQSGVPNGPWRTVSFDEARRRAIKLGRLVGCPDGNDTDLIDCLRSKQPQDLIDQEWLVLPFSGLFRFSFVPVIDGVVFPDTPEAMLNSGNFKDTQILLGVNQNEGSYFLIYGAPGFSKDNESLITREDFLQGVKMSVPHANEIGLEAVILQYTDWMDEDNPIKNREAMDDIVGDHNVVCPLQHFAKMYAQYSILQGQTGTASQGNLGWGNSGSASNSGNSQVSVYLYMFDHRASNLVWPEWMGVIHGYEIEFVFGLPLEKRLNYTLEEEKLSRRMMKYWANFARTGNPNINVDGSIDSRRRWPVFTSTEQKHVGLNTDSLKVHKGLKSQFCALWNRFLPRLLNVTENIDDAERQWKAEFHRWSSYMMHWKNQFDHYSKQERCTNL

[2] = biological target: T1, butyrylcholinesterase (BuChE) (Equus caballus, UniProt P81908); assay: biochemical; conditions: BuChE from equine serum, substrate butyrylthiocholine, 30 min pre-incubation, mean ± SEM of triplicate independent experiments
T1 construct: from Electrophorus electricus and equine serum; from tissue; host or cells: equine serum
T1 sequence (P81908 whole entry): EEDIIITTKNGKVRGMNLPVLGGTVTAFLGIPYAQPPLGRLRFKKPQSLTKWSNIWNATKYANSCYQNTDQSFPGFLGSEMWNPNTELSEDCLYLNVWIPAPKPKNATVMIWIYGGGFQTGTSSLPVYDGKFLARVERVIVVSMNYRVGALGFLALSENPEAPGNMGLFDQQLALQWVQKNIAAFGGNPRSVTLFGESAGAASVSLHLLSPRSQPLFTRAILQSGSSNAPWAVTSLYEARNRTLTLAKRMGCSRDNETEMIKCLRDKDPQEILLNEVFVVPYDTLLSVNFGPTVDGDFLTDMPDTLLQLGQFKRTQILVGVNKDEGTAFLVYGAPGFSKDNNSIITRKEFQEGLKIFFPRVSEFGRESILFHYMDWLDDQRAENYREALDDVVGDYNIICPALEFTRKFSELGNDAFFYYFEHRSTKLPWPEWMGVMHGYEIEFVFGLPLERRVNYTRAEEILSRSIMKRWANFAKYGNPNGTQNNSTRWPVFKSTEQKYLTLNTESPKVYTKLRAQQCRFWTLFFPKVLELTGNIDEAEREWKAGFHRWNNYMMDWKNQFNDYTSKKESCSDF

AChE = AChE (Electrophorus electricus, UniProt O42275); assay: Kinetic study of AChE inhibition (Michaelis-Menten, Lineweaver-Burk); type: biochemical; conditions: Lineweaver-Burk plots, variation in Km and Vmax
AChE, sequence (O42275 24-633): as the sequence (O42275 24-633) above
Protocol: For this purpose, the rate of enzyme activity was measured at eight different concentrations of substrate ATC.
The assays were carried out in a total volume of 200 μL per well containing AChE from Electrophorus electricus (0.20 unit/mL) in PBS, the synthesized compound in DMSO, PBS at IC50, 2× IC50 concentration, and substrate solution. The general procedure was as follows: AChE and the synthesized compounds 7a to IC50 and twice concentrations in PBS were mixed and incubated at rt for 30 min. After incubation, substrate from 3.8 × 10^−3–0.48 mM was added into the mixture. The reaction was recorded for 10 min measuring the absorbance at 405 nm using a Microtiter plate reader (Multiskan EX, Thermo). Data were plotted using GraphPad Prism v4.03 software (GraphPad Software Inc., San Diego, CA, USA) to obtain the Michaelis–Menten constant (Km) and maximal velocity (Vmax) values. Km values were expressed in μM and Vmax as mol/min/mg protein and correspond to the mean ± SD of three independent assays in triplicate.
Figure 1 The Lineweaver–Burk plot of AChE (0.02 U) with an acetylthiocholine substrate in the absence and presence of inhibitor 7a.

O=C(O)CCCN(CC(=O)NC(Cc1ccccc1)C(=O)O)C(=O)c1ccccc1 (stereo not shown) [6d]
IC50 [1]: 10.6 ± 1.5 µM | Selectivity [1]: 28.36 | IC50 [2]: 302 ± 5.8 µM

O=C(O)CCC(=O)N(CC(=O)NC(Cc1ccccc1)C(=O)O)Cc1ccccc1 (stereo not shown) [6e, 2,6-Dibenzyl-4,7-dioxo-3,6-diazadecanedioic acid] (Suc-[Nphe]-[ξF]-OH)
IC50 [1]: 305 ± 5.7 µM | Selectivity [1]: 0.45 | IC50 [2]: 135 µM and 136 µM

NCCCC(=O)N(CC(=O)NC(Cc1ccccc1)C(=O)O)Cc1ccccc1 (stereo not shown) [7a, 10-Amino-2,6-dibenzyl-4,7-dioxo-3,6-diazadecanoic acid] (H-[GABA]-[Nphe]-[ξF]-OH)
kinetic mode of AChE inhibition (AChE): mixed-type inhibition | IC50 [1]: 3.67 ± 0.8 µM | Selectivity [1]: 66.44 | IC50 [2]: 244 ± 4.6 µM

NCCC(=O)N(CC(=O)NC(Cc1ccccc1)C(=O)O)Cc1ccccc1 (stereo not shown) [7b, 9-Amino-2,6-dibenzyl-4,7-dioxo-3,6-diazanonanoic acid] (H-[βAla]-[Nphe]-[ξF]-OH)
IC50 [1]: 41.3 ± 2.3 µM | Selectivity [1]: 11.17 | IC50 [2]: 461 ± 6.2 µM

NCCCCC(=O)N(CC(=O)NC(Cc1ccccc1)C(=O)O)Cc1ccccc1 (stereo not shown) [7c, 11-Amino-2,6-dibenzyl-4,7-dioxo-3,6-diazaundecanoic acid] (H-[Ava]-[Nphe]-[ξF]-OH)
IC50 [1]: 12.6 ± 1.6 µM | Selectivity [1]: 50.69 | IC50 [2]: 636.7 ± 3.7 µM
